Test results as given in patent US20180251847A1, “METHOD OF PREDICTING THE TUMOR RESPONSE TO DNA METHYLATION INHIBITORS AND ALTERNATIVE THERAPEUTIC REGIMEN FOR OVERCOMING RESISTANCE” (PALACKY UNIVERSITY, OLOMOUC, priority 2014, published 2018).
Where two headings read alike, the source gives them in different places.

Columns and labels:
[1] = test system: R1.4 (HCT116-RDAC); experiment: MTT based cell survival assay, DAC resistant HCT116 clone R1.4; design: species or system human
Method: (§1) The DAC resistant HCT116 cell lines were developed using two methods.
(§2) The method is primarily based on reduction of yellow colored tetrazolium salt, 3-(4,5-dimethylthiazol-2-yl)-2,5-diphenyltetrazolium bromide (MTT) to insoluble purple colored formazan crystals by NAD(P)H-dependent oxidoreductase enzymes in mitochondria of the viable cell.
(§3) Cells in 80 μL of medium were plated in each of the experimental and the control wells, followed by addition of 20 μL medium with five-fold drug concentration to experimental wells. The wells with medium alone were included alongside as blank for absorbance readings. After 72 h of drug treatment, 10 μL MTT (Sigma-Aldrich) prepared in 1×PBS (5 mg/mL) was added to all wells including blank and control, and incubated until the purple formazan crystals were visible after which 100 μL of detergent (10% SDS, pH: 5.5) was added and the plates were incubated overnight to solubilize the formazan and the cellular material.
(§4) Cross resistance was determined as the fold increase, whereas, the sensitivity was determined as the fold decrease in the IC50 of the drugs for the resistant cell lines compared to their genetically identical drug sensitive counterpart.

[2] = test system: HCT116; experiment: MTT based cell survival assay, parental HCT116; design: species or system human; conditions: Homo sapiens
Method: (§5) To study the mechanism of resistance towards DNA methylation inhibitor, 2′-deoxy-5-azacytidine, we used the human colorectal cancer cell line (HCT116), human promyelocytic leukemia cells (HL-60), and human breast adenocarcinoma cell line (MCF-7) obtained from American Type Culture Collection (Manassas, Va.). The cell lines were cultured in complete growth media (Sigma-Aldrich, St. Louis, Mo.), supplemented with fetal bovine serum (FBS, PAN-Biotech GmbH, Aidenbach, Germany), 100 U/mL penicillin (Biotika, Slovenská L'upča, Slovak Republic) and 50 μg/mL streptomycin (Sigma-Aldrich), and the cultures were maintained at 37° C. and 5% CO2, in a humidified incubator. The cell line, HCT116 was grown in McCoy's 5 A medium supplemented with 10% FBS and 3 mM L-glutamine (Sigma-Aldrich), HL-60 was grown in Iscove's Modified Dulbecco's Medium with 20% FBS, and MCF-7 was grown in RPMI-1640 medium with 10% FBS.
as §2, with “cell. The intensity of the purple color produced on solubilization of the formazan crystals is directly proportional to the number of viable cells (Meerloo J. V. et al., Methods in Molecular Biology 2011; 731, 237-45).” for “cell.”
as §3, with “To determine the IC50 of the epigenetic drugs (Tocris Bioscience, Bristol, United Kingdom), four independent experiments were performed using triplicate wells of 96 well plates. Cells” for “Cells”, “[…],” for “After 72 h of drug treatment,”
as §4

[3] = test system: DAC resistant cell lines; experiment: MTT based cell survival assay, DAC resistant cell lines as a group; conditions: Homo sapiens, all of the resistant cell lines, read-out: resistance to DAC (IC50)
Method: The DAC resistant HCT116 cell lines were developed using two methods. […] After long term exposure of the cells to cytotoxic dose of the drug, the bulk population was determined to be resistant.
For cross validation of data obtained from comparative studies of HCT116 parental and resistant cells, we further developed DAC resistant MCF-7 and HL-60 cell lines. […] However, DAC resistant HL-60 cells were obtained as a gift from the author (Qin T. et al., Blood 2009; 113, 659-67) and was further selected in our laboratory by treatment with 5 μM DAC.
Resistance to DAC was confirmed by the MTT-based cell survival assay and resistance index was calculated as the fold increase in the IC50 of the resistant cell lines compared with the untreated control. All of the resistant cell lines were >100 μM resistant to DAC. […]
(§6) To determine the IC50 of the epigenetic drugs (Tocris Bioscience, Bristol, United Kingdom), four independent experiments were performed using triplicate wells of 96 well plates. […] The wells with medium alone were included alongside as blank for absorbance readings. […]
as §4

[4] = test system: R2.1 (HCT116-RDAC); experiment: MTT based cell survival assay, DAC resistant HCT116 clone R2.1; design: species or system human
Method: as §1, §2, §3, §4

[5] = test system: MCF-7; experiment: MTT based cell survival assay, parental MCF-7; conditions: Homo sapiens, MCF7, read-out: Mean IC50
Method: as §5, with “The cell line, HCT116 was grown in McCoy's 5 A medium supplemented with 10% FBS and 3 mM L-glutamine (Sigma-Aldrich), HL-60 was grown in Iscove's Modified Dulbecco's Medium with 20% FBS, and MCF-7 was grown in RPMI-1640 medium with 10% FBS.” left out
as §6, §4

[6] = test system: R2.2 (HCT116-RDAC); experiment: MTT based cell survival assay, DAC resistant HCT116 clone R2.2; design: species or system human
Method: as §1, §2, §3, §4

[7] = test system: HL-60; experiment: MTT based cell survival assay, parental HL-60; conditions: Homo sapiens, HL-60, read-out: Mean IC50
Method: as §5, with “The cell line, HCT116 was grown in McCoy's 5 A medium supplemented with 10% FBS and 3 mM L-glutamine (Sigma-Aldrich), HL-60 was grown in Iscove's Modified Dulbecco's Medium with 20% FBS, and MCF-7 was grown in RPMI-1640 medium with 10% FBS.” left out
as §6, §4

[8] = test system: R1.1 (HCT116-RDAC); experiment: MTT based cell survival assay, DAC resistant HCT116 clone R1.1; design: species or system human
Method: as §1, §2, §3, §4

[9] = Homo sapiens, HCT-116, 72 h, read-out: Mean IC50

For `Nc1ncn([C@H]2C[C@H](O)[C@@H](CO)O2)c(=O)n1` [DAC, 2′-deoxy-5-azacytidine], the IC50 [1, 9] was > 100 µM, the “fold change (resistance index)” value ([1]; IC50 R1.4 / IC50 HCT116) was “(>357) fold” and the IC50 ([2]; HCT-116, 72 h, read-out: Mean IC50) was 280 nM. The IC50 ([2]; HCT-116, 120 h, read-out: IC50 concentration of the drug) was 280 nM, the IC50 [3] was > 100 µM and the IC50 ([4]; Homo sapiens, HCT-116, R2.1, MTT, 72 h drug treatment) was > 100 µM. The “fold change (resistance index)” value ([4]; IC50 R2.1 / IC50 HCT116) was “(>357) fold”, the IC50 [5] was 238 nM and the IC50 [6, 9] was > 100 µM. For the same compound, the “fold change (resistance index)” value ([6]; IC50 R2.2 / IC50 HCT116) was “(>357) fold”, the IC50 [7] was 78 nM and the IC50 [8, 9] was > 100 µM. The “fold change (resistance index)” value ([8]; IC50 R1.1 / IC50 HCT116) was “(>357) fold”.
